Experimental findings from ChEMBL document CHEMBL1201862, “PubChem BioAssay data set” (2004) are described below.

In test [1] the target is NAD-dependent protein deacylase sirtuin-5, mitochondrial (Homo sapiens, UniProt Q9NXA8). Nature of the test: SIRT5 desuccinylase inhibitors, dose response, biochemical, fluorescence imaging, cherry-pick, set 5 (AID 720591).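 Also: desuccinylation of succinyl peptide AMC substrate read as fluorescence after trypsin release; potency of inhibitors that lower fluorescence and may act on trypsin instead.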
Test [2] addresses Disintegrin and metalloproteinase domain-containing protein 17 (Homo sapiens, UniProt P78536). Briefly: ADAM17 protease inhibitors, dose response, counter-screen for ADAM10 exosite inhibitor project, biochemical, quenched FRET substrate (AID 743253). On the technique in general: The purpose of a counterscreen is to sort out artefacts and off-target activity.
For test [3], the target named is T1, Oxysterols receptor LXR-beta (Homo sapiens, UniProt P55055).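 Also: agonist activity at LXR measured by a cell-based luminescence readout across a dose range, run as a counterscreen for daf-12 agonists; HEK293 cells with Gal4-LXR fusion and GAL4-driven luciferase reporter; potency for activation of Gal4-LXR reporter so compounds are agonists.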
T1 sequence (P55055 whole entry): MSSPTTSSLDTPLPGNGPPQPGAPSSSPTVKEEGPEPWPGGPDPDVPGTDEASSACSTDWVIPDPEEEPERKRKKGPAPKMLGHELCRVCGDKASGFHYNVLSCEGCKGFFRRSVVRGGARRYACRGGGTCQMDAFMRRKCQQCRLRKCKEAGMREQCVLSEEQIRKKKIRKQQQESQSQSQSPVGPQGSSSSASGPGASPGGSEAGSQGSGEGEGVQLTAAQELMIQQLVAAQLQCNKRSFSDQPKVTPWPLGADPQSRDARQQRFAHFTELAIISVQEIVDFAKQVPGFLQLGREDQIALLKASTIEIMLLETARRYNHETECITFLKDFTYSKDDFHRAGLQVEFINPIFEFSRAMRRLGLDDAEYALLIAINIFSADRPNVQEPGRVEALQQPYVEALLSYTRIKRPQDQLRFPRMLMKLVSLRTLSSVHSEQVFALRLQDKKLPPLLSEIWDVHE
The class given is functional, cell-based.

Test [4] addresses T2, Heat shock factor protein 1 (Mus musculus, UniProt P38532).
T2 sequence (P38532 whole entry): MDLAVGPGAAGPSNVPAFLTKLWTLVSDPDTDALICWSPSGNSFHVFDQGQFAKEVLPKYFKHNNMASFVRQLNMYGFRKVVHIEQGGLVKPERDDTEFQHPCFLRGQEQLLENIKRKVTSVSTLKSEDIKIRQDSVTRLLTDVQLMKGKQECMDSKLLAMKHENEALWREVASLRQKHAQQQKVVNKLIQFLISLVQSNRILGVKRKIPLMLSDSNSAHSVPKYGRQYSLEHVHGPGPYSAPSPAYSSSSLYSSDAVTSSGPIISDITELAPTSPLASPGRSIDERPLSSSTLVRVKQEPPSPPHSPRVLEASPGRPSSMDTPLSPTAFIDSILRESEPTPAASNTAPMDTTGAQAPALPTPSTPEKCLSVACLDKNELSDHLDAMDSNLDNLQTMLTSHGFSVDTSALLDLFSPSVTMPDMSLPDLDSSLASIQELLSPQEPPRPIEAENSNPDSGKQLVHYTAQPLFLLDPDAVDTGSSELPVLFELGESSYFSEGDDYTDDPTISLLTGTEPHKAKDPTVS
Briefly: HSF1 potentiators in luciferase reporter cells, confirmation, cell-based, NIH3T3, luminescence, dose retest (AID 435004).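 Also: stress induced by proteasome inhibitor MG132 added 30 min after compound; luciferase reporter driven by HSF1 response element in NIH3T3 cells; actives raise luminescence as potentiators of the MG132 stress response.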 It counts as functional. (A reporter such as luciferase makes a cellular process visible.)

In test [5] the target is T2, Heat shock factor protein 1. Nature of the test: inhibition of MG132-induced HSE-luciferase signal, confirmation, cell-based, NIH3T3, luminescence, dose retest (AID 2382).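 Also: NIH3T3 fibroblasts with HSF1-driven luciferase reporter stressed by proteasome inhibitor MG132; luminescence from HSF1-driven luciferase expression after 8 hours of MG132 stress.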 The class given is functional.
Another test concerns the target Major prion protein (Homo sapiens, UniProt P04156). It counts as functional, cell-based.
The target of test [6] is T3, Rac GTPase-activating protein 1 (Homo sapiens, UniProt Q9H0H5).
T3 sequence (Q9H0H5 whole entry): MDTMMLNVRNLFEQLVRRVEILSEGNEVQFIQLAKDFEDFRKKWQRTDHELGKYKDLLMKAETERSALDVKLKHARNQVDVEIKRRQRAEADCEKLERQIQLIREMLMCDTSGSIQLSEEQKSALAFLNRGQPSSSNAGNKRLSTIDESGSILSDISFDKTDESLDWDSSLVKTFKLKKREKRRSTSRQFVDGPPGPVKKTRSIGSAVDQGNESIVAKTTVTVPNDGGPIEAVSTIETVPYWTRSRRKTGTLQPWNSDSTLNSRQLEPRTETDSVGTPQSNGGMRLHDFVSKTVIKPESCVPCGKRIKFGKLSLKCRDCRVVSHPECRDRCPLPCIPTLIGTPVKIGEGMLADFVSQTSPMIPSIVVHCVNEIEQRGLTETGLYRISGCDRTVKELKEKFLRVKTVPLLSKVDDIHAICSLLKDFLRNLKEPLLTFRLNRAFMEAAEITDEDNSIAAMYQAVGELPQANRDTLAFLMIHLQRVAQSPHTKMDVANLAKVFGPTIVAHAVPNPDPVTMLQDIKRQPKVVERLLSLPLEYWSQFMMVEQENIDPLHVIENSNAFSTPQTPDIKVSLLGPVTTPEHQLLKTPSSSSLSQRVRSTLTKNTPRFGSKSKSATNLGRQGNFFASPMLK
Nature of the test: MgcRacGAP GTPase-activating activity inhibitors, confirmation, biochemical, ADP Hunter fluorescence, primary and confirmatory (AID 624330). It counts as functional.

The nature of test [7]: ADAM10 inhibitors, peptide cleavage, dose response, biochemical, QFRET (AID 743254).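 Also: ADAM10 enzyme with the DM2 quenched FRET peptide as substrate; EDANS fluorescence gain as the protease cuts the substrate; inhibitor potency against ADAM10 proteolytic activity.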
Test [8] addresses Peroxisome proliferator-activated receptor gamma/Nuclear receptor coactivator 3 (Homo sapiens, UniProt P37231). Briefly: TR-FRET dose response biochemical High Throughput Screening assay for agonists of the steroid receptor coactivator 3 (SRC-3) recruitment by the peroxisome proliferator-activated receptor gamma (PPAR gamma): non-selective agonists. [Related pubchem assays: 1301 (Confirmation screen.), 1048 (Primary screen.)]. The class given is functional. In general terms: Time-resolved FRET reads energy transfer from a long-lived donor to a nearby acceptor.

The target of test [9] is Peroxisome proliferator-activated receptor gamma/Nuclear receptor coactivator 2 (Homo sapiens, UniProt P37231). Briefly: TR-FRET dose response biochemical High Throughput Screening assay for agonists of the steroid receptor coactivator 2 (SRC-2) recruitment by the peroxisome proliferator-activated receptor gamma (PPAR gamma): non-selective agonists. [Related pubchem assays: 1297, 1032 ]. The class given is functional.

In test [10] the target is Peroxisome proliferator-activated receptor gamma/Nuclear receptor coactivator 1 (Homo sapiens, UniProt P37231). Nature of the test: TR-FRET dose response biochemical High Throughput Screening assay for agonists of the steroid receptor coactivator 1 (SRC-1) recruitment by the peroxisome proliferator-activated receptor gamma (PPAR gamma): non-selective agonists. [Related pubchem assays (depositor defined):AID1300, AID1808, AID504735, AID631]. The class given is protein assay.

A short description of test [11]: cytotoxicity in OVCAR8 ovarian cancer cells, dose response, PAX8 project, cell-based, plate reader, dry powder samples (AID 743197). As to conditions: OVCAR-8. It counts as functional.
Test [12] is described as follows: cytotoxicity dependent on PAX8, dose response, cell-based, plate reader, dry powder (AID 743049). It counts as functional.
Test [13] is described as follows: IGROV1 ovarian cancer cell cytotoxicity, dose response, PAX8 inhibitor project, plate reader, dry powder samples (AID 743043). It counts as functional, cell-based. As to conditions: IGROV-1.
Test [14] can be described thus: P. falciparum ATP4 D1247Y mutant growth inhibitors, dose response, NITD609-resistant line, SYBR Green, dry powder (AID 1159571).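 Also: parasites synchronized at ring stage by sorbitol before testing.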 The class given is functional, cell-based.
Test [15] in a line: cytotoxicity in OV-90 ovarian cancer cells, dose response, PAX8 inhibitor project, cell-based, plate reader, dry powder, SA8 (AID 743149). It counts as functional.
Test [16] is described as follows: PAX2 cell-based inhibition, dose response, selectivity assay for PAX8 inhibitor project, plate reader, dry powder samples (AID 743048).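 Also: HEK293 cells carrying a WT1 promoter luciferase reporter driven by expressed Pax2; potency is for inhibition of Pax2 driven reporter signal.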 It counts as functional.
The nature of test [17]: cytotoxicity in COV362 ovarian cancer cells, dose response, cytotoxicity control for PAX8 inhibitor project, cell-based, plate reader, dry powder, SA12 (AID 743144). The class given is functional.
A short description of test [18]: P. falciparum Dd2 growth inhibitors, dose response, SYBR Green, dry powder samples (AID 1159566).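 Also: potency for growth inhibition with lower SYBR green DNA signal.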 The class given is functional, cell-based.
For a further test, the target named is Paired box protein Pax-8 (Homo sapiens, UniProt Q06710). Nature of the test: inhibitors of PAX8-driven TPO luciferase reporter, dose response, RMG-I cells, cherry-pick (AID 687027).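 Also: luciferase reporter driven by Pax8 target thyroperoxidase promoter measured by SteadyGlo luminescence.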 It counts as functional, cell-based.
Test [19] can be described thus: cytotoxicity in OVCAR4 cells, dose response, cytotoxicity control for PAX8 inhibitor project, cell-based, plate reader, dry powder, SA11 (AID 743150). As to conditions: OVCAR-4. The class given is functional.
The nature of test [20]: HepG2 cell cytotoxicity, dose response, cytotoxicity control, cherry-picked samples (AID 1159577). It counts as functional, cell-based.
Test [21] can be described thus: PAX5 activity inhibitors, dose response, selectivity assay for PAX8 inhibitor project, cell-based, plate reader, dry powder samples (AID 743047).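 Also: HEK293 cells carrying a Pax5 driven CD19 promoter luciferase reporter; potency of inhibitors that lower reporter luminescence.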 It counts as functional.
Test [22] in a line: P. falciparum 3D7-ScDHODH growth inhibitors, dose response, SYBR Green, dry powder samples (AID 1159570).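 Also: parasite growth measured after 72 hours of compound exposure.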 The class given is functional, cell-based.
Test [23] in a line: P. falciparum Dd2 growth inhibitors, dose response, SYBR Green, cherry-picked samples (AID 1159567). The class given is functional, cell-based.
The nature of test [24]: HepG2 cell cytotoxicity, dose response, cytotoxicity control, plate reader, dry powder samples (AID 1159569).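 Also: inhibitor potency with signal falling toward the positive control level.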 The class given is functional, cell-based.
The nature of test [25]: NIH:OVCAR-3 ovarian cancer cell cytotoxicity, dose response, PAX8 inhibitor project, plate reader, dry powder samples (AID 743044). It counts as functional, cell-based.
The nature of test [26]: cytotoxicity in COV434 cells, dose response, cytotoxicity control for PAX8 inhibitor project, cell-based, plate reader, dry powder, SA7 (AID 743145). The class given is functional.
Test [27] can be described thus: IOSE-T80 ovarian epithelial cell cytotoxicity, dose response, cytotoxicity control for PAX8 inhibitor project, plate reader, dry powder samples (AID 743045). It counts as functional, cell-based.
Another test concerns the target Fatty acid synthase (Homo sapiens, UniProt P49327). Briefly: FAS thioesterase domain inhibitors, SAR follow-up, biochemical, endpoint fluorescence intensity, powder samples (AID 652164). The class given is functional.
The target of test [28] is Potassium channel subfamily K member 3 (Homo sapiens, UniProt O14649). Briefly: TASK1 (KCNK3) potassium channel inhibitors, SAR follow-up, CHO cells, FluxOR thallium flux (AID 652212). The class given is functional.
Test [29] addresses Potassium channel subfamily K member 9 (Homo sapiens, UniProt Q9NPC2). Briefly: TASK3 (KCNK9) channel inhibitors, thallium flux, SAR follow-up, selectivity assay for TASK1 inhibitor project, cell-based, FluxOR thallium flux, concentration-response (AID 652211).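 Also: potency is for inhibitors of the channel.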 The class given is functional.

As a reminder, the AC50 is the midpoint of the concentration-response curve, whichever way the signal moves. What is called IC50 is the concentration at which inhibition is half-maximal. Usually EC50 stands for the concentration at which the effect is half-maximal.

The source made the active and inactive calls.

Turning to `CCc1ccccc1-n1c(SCC(=O)NC)nnc1-c1ccco1`, the AC50 in [1] is > 30 µM (inactive).

Turning to `CCc1ccc(-c2cn(C3CCCCC3)c(=S)[nH]2)cc1`, in test [2], the IC50 is > 69.5 µM (inactive).

For `Cc1cc(NC(=O)CSc2nc3c(cc2C#N)CCC3)no1`, the values for the EC50 in [3] and in test [4] were > 67.6 µM (inactive) and 0.83 µM (active), respectively.

As for `COc1nc(-c2ccccc2)c2cc(Br)ccc2n1`, the EC50 in [5] was > 195 µM (not active). The values for the IC50 at Major prion protein and in “cells” were 5.53 µM (active) and > 138 µM (inactive), respectively.

`Nc1ccc2c(c1)Cc1cc(N)c(Cl)cc1-2`: the EC50 in [3] was > 67.4 µM (inactive). Further, the IC50 in test [6] is 8.46 µM (active).

Consider `CC1(Cc2ccc(C(F)(F)F)o2)C(=O)Nc2ccc(-c3cccc(C(F)(F)F)c3)cc21` (stereo not drawn), for which the IC50 in test [7] was 11.3 µM (inactive); in [2], > 69.6 µM (inactive).

In the case of `C#CCn1/c(=N/C(=O)c2ccc(Br)s2)sc2cccc(OC)c21`, the IC50 at Major prion protein was 2.6 µM (active); in the test “cells”, 48.6 µM (inactive). Also, the EC50 is 18.1 µM (not active) in test [8], 10.6 µM (not active) in [9] and 10.3 µM (inactive) in test [10].

Take `CC(C)(C)c1ccc(S(=O)(=O)NC(=O)C2(C)CCN2C(=O)C2CCCCC2)cc1` (stereo not drawn): the AC50 in test [1] was > 30 µM (inactive).

With `COc1ccccc1C#Cc1ccc([C@H]2[C@@H](CO)N(C(=O)C3CCCCC3)[C@H]2C#N)cc1`, the AC50 in [11] was 60.8 µM (active); in test [12] it was 12.2 µM (active); in test [13] it was 44.8 µM (active); in [14], 1.53 µM (active); in test [15] it was 28.6 µM (active); in test [16], 9.82 µM (active). Also, the AC50 in test [17] is 36.4 µM (active); in [18] it was 0.684 µM (active); on Paired box protein Pax-8 it was 3.4 µM (active); in [19], 63.6 µM (active); in test [20], > 39 µM (inactive); in [21], 6.15 µM (active). Moreover, the AC50 is 1.19 µM (active) in [22]; 1.36 µM (active) in test [23]; 35.2 µM (active) in test [24]; 18.9 µM (active) in [25]; 20.6 µM (active) in test [26]; 42.5 µM (active) in test [27].

In the case of `CN(C)S(=O)(=O)c1ccc(-c2csc(NC(=O)C3CCCC3)n2)cc1`, the IC50 at Fatty acid synthase was 1.55 µM (active).

Regarding `CCOc1ccccc1NC(=O)c1cccc(NC(=O)C(C)(C)C)c1`, the IC50 is 1.32 µM (active) in test [28] and 30.5 µM (active) in test [29].
